Results published in patent US12264173B2 (GILEAD SCIENCES, INC., priority 2020, dated 2025).
Like-named read-outs stand apart in the source and are kept apart here.

What was measured:
Format in all cases: cell-based
[1] = tested on: HRV16; assay: HRV16 HeLa EC50 (cytopathic effect in H1-HeLa cells)
How it was run: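 Read-out is luminescent cell viability (CellTiter-Glo) after 96 h of infection at 33 °C, scaled between uninfected and infected-untreated wells. Before infection with titrated virus, compounds went onto H1-HeLa cells as triplicate 3-fold dilution series.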

[2] = tested on: DENV2 replicon; assay: DENV-2 Huh-7 Rep EC50 (replicon luminescence)
Experimental: In 384 well plates (Greiner, Cat #781091), compounds were acoustically transferred at 200 nl per well in a 8 compound (4 replicates) or 40 compound dose response format (3 replicates). For all plates tested, Balapiravir, GS-5734 and NITD008 were included as positive inhibition controls alongside 0% inhibition, DMSO-only negative control wells. Following compound addition, Huh-7 cells containing the DENV2 replicon construct were harvested following standard cell culture procedures and were adjusted to a concentration of 1.25E5 cells/mL in cell culture media composed of cDMEM without genticin. 40 μL of the cell stock was then added to each well for a final cell density of 5,000 cells/well. Cell and compound mixtures were incubated at 37° C./5% CO2 for 48 hours. Prior to harvesting cells, EnduRen Live Cell Substrate (Promega, Cat #E6481) was prepared by suspending 3.4 mg into 100 uL of DMSO to generate a 60 mM stock solution. The stock solution was then diluted 1:200 in pre-warmed cDMEM and 10 uL of this diluted solution was added to each well of the 384 well plates. Plates were then centrifuged at 500 rpm briefly and were placed on a plate shaker for 2 min. Following mixing, plates were incubated at […] for 1.5 hours prior to measuring luminescence on an Envision luminometer.

[3] = tested on: RSV A2; assay: RSV NHBE EC50 (RSV A2 antiviral assay in NHBE cells); conditions: Table 3, NHBE cells, RSV A2, 4 days, read-out: RSV NHBE EC50
How it was run: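 Luminescent ATP-based viability was recorded in RSV A2-infected normal human bronchial epithelial cells exposed to serially diluted compound (3-fold steps, 0.05% DMSO). Infection used 1×10^4.5 TCID/mL, with a 4-day incubation at 37° C.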

[4] = tested on: RSV strain A2; assay: microbe, parasite or virus in culture; conditions: Table 3, HEp-2 cells, RSV A2, 4 days, read-out: RSV HEp-2 EC50
How it was run: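 Cytopathic-effect protection assay: HEp-2 cells (50,000/mL) infected with pre-titered RSV A2 onto 3-fold serial compound dilutions, incubated 4 days at 37° C. Cell viability read by CellTiter-Glo luminescence; percent inhibition derived against 0% and 100% virus-inhibition controls.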

[5] = 96 h, Table 3; H1-HeLa cells, 96 h; read-out: HRV16 HeLa EC50
[6] = Dengue virus, DENV2, Huh-7, 48 h, read-out: DENV-2 REP Huh7 EC50
[7] = human respiratory syncytial virus, NHBE, 96 h
[8] = human respiratory syncytial virus, HEp-2, 96 h
[9] = Table 3; H1-HeLa cells, 96 h; read-out: HRV16 HeLa EC50
[10] = Table 3, Huh-7 DENV2 replicon cells, 48 hours, read-out: DENV-2 REP Huh7 EC50
[11] = Dengue virus, DENV2, Huh-7, 48 h, read-out: DENV-2 REP Huh7 EC50, Table 3, Huh-7 DENV2 replicon cells, 48 hours

Structure (SMILES)	EC50 [1, 5]	EC50 [2, 6]	EC50 [3, 7]	EC50 [4, 8]	other results
CCC(=O)O[C@H]1[C@H](c2ccc3c(N)ncnn23)O[C@](C#N)(COP(=O)(N[C@@H](C)C(=O)OC2COC2)Oc2ccccc2)[C@H]1OC(=O)CC (mixture of isomers) [Example 174, (2R,3S,4S,5S)-5-(4-aminopyrrolo[2,1-f][1,2,4]triazin-7-yl)-2-cyano-2-((((((S)-1-(oxetan-3-yloxy)-1-oxopropan-2-yl)amino)(phenoxy)phosphoryl)oxy)methyl) tetrahydrofuran-3,4-diyl dipropionate]	97 nM	8310 nM	20 nM	100 nM	–
CCCOC(=O)[C@H](C)NP(=O)(OC[C@@]1(C#N)O[C@@H](c2ccc3c(N)ncnn23)[C@H](OC(=O)CC)[C@@H]1OC(=O)CC)Oc1ccccc1 (mixture of isomers) [Example 187]	88 nM	5930 nM	17 nM	24 nM	–
COC(=O)[C@H](C)N[P@@](=O)(OC[C@@]1(C#N)O[C@@H](c2ccc3c(N)ncnn23)[C@H](OC(C)=O)[C@@H]1OC(C)=O)Oc1ccccc1 (single isomer, unassigned) [Example 130]	1780 nM	21000 nM	59 nM	198 nM	–
COC(=O)[C@H](C)N[P@](=O)(OC[C@@]1(C#N)O[C@@H](c2ccc3c(N)ncnn23)[C@H](OC(C)=O)[C@@H]1OC(C)=O)Oc1ccccc1 (single isomer, unassigned) [Example 131]	782 nM	19200 nM	47 nM	103 nM	–
COC(=O)[C@H](C)N[P@@](=O)(OC[C@@]1(C#N)O[C@@H](c2ccc3c(N)ncnn23)[C@H](OC(=O)C(C)C)[C@@H]1OC(=O)C(C)C)Oc1ccccc1 (single isomer, unassigned) [Example 139]	97 nM	5240 nM	8 nM	39 nM	–
CCC(=O)O[C@H]1[C@H](c2ccc3c(N)ncnn23)O[C@](C#N)(CO[P@](=O)(N[C@@H](C)C(=O)OC)Oc2ccccc2)[C@H]1OC(=O)CC (single isomer, unassigned) [Example 142]	352 nM	11100 nM	16 nM	93 nM	–
CC(=O)O[C@H]1[C@H](c2ccc3c(N)ncnn23)O[C@](C#N)(COP(=O)(N[C@@H](C)C(=O)OC2CCOCC2)Oc2ccccc2)[C@H]1OC(C)=O (single isomer, unassigned) [Example 165]	–	–	–	–	EC50 [1, 9]: 1910 nM; EC50 [2, 10]: > 99700 nM; EC50 [3]: 165 nM; EC50 [4]: 405 nM
C[C@H](NP(=O)(OC[C@@]1(C#N)O[C@@H](c2ccc3c(N)ncnn23)[C@H](OC(=O)C(C)(C)C)[C@@H]1OC(=O)C(C)(C)C)Oc1ccccc1)C(=O)OC1CCOCC1 (single isomer, unassigned) [Example 173]	–	–	–	–	EC50 [1, 9]: 519 nM; EC50 [2, 10]: 16100 nM; EC50 [3]: 75 nM; EC50 [4]: 256 nM
CCC(CC)COC(=O)[C@H](C)NP(=O)(N[C@@H](C)C(=O)OC1CCCCC1)OC[C@@]1(C#N)O[C@@H](c2ccc3c(N)ncnn23)[C@H](OC(C)=O)[C@@H]1OC(C)=O (stereo partly drawn) [Example 113, (2R,3S,4S,5S)-5-(4-Aminopyrrolo[2,1-f][1,2,4]triazin-7-yl)-2-cyano-2-((((((S)-1-(cyclohexyloxy)-1-oxopropan-2-yl)amino)(((S)-1-(2-ethylbutoxy)-1-oxopropan-2-yl)amino)phosphoryl)oxy)methyl)tetrahydrofuran-3,4-diyl diacetate]	–	–	–	1940 nM	EC50 ([1]; 96 h, read-out: HRV16 HeLa EC50, Table 3; H1-HeLa cells, 96 h): 4680 nM; EC50 [2, 11]: 31900 nM
CC(=O)O[C@H]1[C@H](c2ccc3c(N)ncnn23)O[C@](C#N)(CO[P@](=O)(N[C@@H](C)C(=O)OCC2CCN(CC(F)(F)F)CC2)Oc2ccccc2)[C@H]1OC(C)=O [Example 120]	–	–	–	–	EC50 [1, 9]: 1140 nM; EC50 [2, 10]: 35200 nM; EC50 [4]: 163 nM
CC(C)OC(=O)[C@H](C)N[P@](=O)(OC[C@@]1(C#N)O[C@@H](c2ccc3c(N)ncnn23)[C@H](OC(=O)C2COC2)[C@@H]1OC(=O)C1COC1)Oc1ccccc1 [Example 160, (2R,3S,4S,5S)-5-(4-aminopyrrolo[2,1-f][1,2,4]triazin-7-yl)-2-cyano-2-((((S)-(((S)-1-isopropoxy-1-oxopropan-2-yl)amino)(phenoxy)phosphoryl)oxy)methyl) tetrahydrofuran-3,4-diyl bis(oxetane-3-carboxylate)]	–	37400 nM	860 nM	204 nM	–
CC(C)OC(=O)[C@H](C)NP(=O)(OC[C@@]1(C#N)O[C@@H](c2ccc3c(N)ncnn23)[C@H](OC(=O)C(C)C)[C@@H]1OC(=O)C(C)C)Oc1ccc(C(=O)N(C)C)cc1 (stereo partly drawn) [Example 177, (2R,3S,4S,5S)-5-(4-Aminopyrrolo[2,1-f][1,2,4]triazin-7-yl)-2-cyano-2-((((4-(dimethylcarbamoyl)phenoxy)(((S)-1-isopropoxy-1-oxopropan-2-yl)amino)phosphoryl)oxy)methyl)tetrahydrofuran-3,4-diyl bis(2-methylpropanoate)]	–	27200 nM	49 nM	120 nM	–
CC(C)C(=O)O[C@H]1[C@H](c2ccc3c(N)ncnn23)O[C@](C#N)(COP(=O)(N[C@@H](C)C(=O)OC[C@H]2CC[C@H](N)CC2)Oc2ccccc2)[C@H]1OC(=O)C(C)C (stereo partly drawn) [Example 207, (2R,3S,4S,5S)-2-((((((S)-1-(((1r,4S)-4-aminocyclohexyl)methoxy)-1-oxopropan-2-yl)amino)(phenoxy)phosphoryl)oxy)methyl)-5-(4-aminopyrrolo[2,1-f][1,2,4]triazin-7-yl)-2-cyanotetrahydrofuran-3,4-diyl bis(2-methylpropanoate)]	–	> 37500 nM	149 nM	1080 nM	–
CC(C)OC(=O)[C@H](C)NP(=O)(OCCS(C)(=O)=O)OC[C@@]1(C#N)O[C@@H](c2ccc3c(N)ncnn23)[C@H](OC(=O)C(C)C)[C@@H]1OC(=O)C(C)C (stereo partly drawn) [Example 210, (2R,3S,4S,5S)-5-(4-aminopyrrolo[2,1-f][1,2,4]triazin-7-yl)-2-cyano-2-((((((S)-1-isopropoxy-1-oxopropan-2-yl)amino)(2-(methylsulfonyl)ethoxy)phosphoryl)oxy)methyl)tetrahydrofuran-3,4-diyl bis(2-methylpropanoate)]	–	–	3420 nM	36300 nM	EC50 [2, 11]: > 35400 nM
CC(C)C(=O)O[C@H]1[C@H](c2ccc3c(N)ncnn23)O[C@](C#N)(COP(=O)(N[C@@H](C)C(=O)OC2CCCC2)Oc2ccccc2)[C@H]1OC(=O)C(C)C (stereo partly drawn) [Example 254, (2R,3S,4S,5S)-5-(4-aminopyrrolo[2,1-f][1,2,4]triazin-7-yl)-2-cyano-2-((((((S)-1-(cyclopentyloxy)-1-oxopropan-2-yl)amino)(phenoxy)phosphoryl)oxy)methyl) tetrahydrofuran-3,4-diyl bis(2-methylpropanoate)]	–	29400 nM	24 nM	36 nM	–
CC(C)C(=O)O[C@H]1[C@H](c2ccc3c(N)ncnn23)O[C@](C#N)(COP(=O)(N[C@@H](C)C(=O)OC2CC2)Oc2ccccc2)[C@H]1OC(=O)C(C)C (stereo partly drawn) [Example 255, (2R,3S,4S,5S)-5-(4-aminopyrrolo[2,1-f][1,2,4]triazin-7-yl)-2-cyano-2-((((((S)-1-cyclopropoxy-1-oxopropan-2-yl)amino)(phenoxy)phosphoryl)oxy)methyl) tetrahydrofuran-3,4-diyl bis(2-methylpropanoate)]	–	2910 nM	18 nM	38 nM	–
COC(=O)[C@H](C)N[P@](=O)(OC[C@@]1(C#N)O[C@@H](c2ccc3c(/N=C/N(C)C)ncnn23)[C@H](OC(=O)C(C)C)[C@@H]1OC(=O)C(C)C)Oc1ccccc1 [Example 260, (2R,3S,4S,5S)-2-Cyano-5-(4-(((E)-(dimethylamino)methylene)amino)pyrrolo[2,1-f][1,2,4]triazin-7-yl)-2-((((S)-(((S)-1-methoxy-1-oxopropan-2-yl)amino)(phenoxy)phosphoryl)oxy)methyl) tetrahydrofuran-3,4-diyl bis(2-methylpropanoate)]	–	2800 nM	12 nM	41 nM	–
